Laboratory results reported in US20110306554A1, “PEPTIDE CAPABLE OF BINDING TO IMMUNOGLOBULIN” (priority 2009, published 2011).

Tested on: Monoclonal antibody cocktail-induced arthritis mice
Test: Arthritis suppressing effects on arthritis-induced mice, Part 3
Assay type: in vivo
Settings: 10 mg/kg intravenously once a day from day 4, 10 days
Procedure: Monoclonal antibody cocktail-induced arthritis mice were used to examine arthritis suppressing effects of peptides which are indicated as R13 and R17 in the section (3) in Example 2. Arthritis was caused by intravenous administration of 2 mg/mouse of an arthritis-inducing monoclonal antibody cocktail and three days later, intraperitoneal administration of 50 μg/mouse of LPS. The peptides were given via intraperitoneal or intravenous administration at a dose of 10 mg/kg once a day for a period of 10 consecutive days from four days after the administration of the arthritis-inducing monoclonal antibody cocktail, and arthritis suppressing effect was examined in terms of clinical score and hind-limb volume determination.
The required amount was calculated for each peptide, based on the animal weight. Each peptide solution was prepared using physiological saline (at 0.1 mg/ml for R1, 1 mg/ml for R2, and 1 or 10 mg/ml for R13 and R17), and cold stored. […]
Results of examinations were expressed by mean value±standard error and analyzed using EXSAS (Version 7.1.6, Arm Systex Co., Ltd.). […] Quantitative data, such as body weights and leg volumes, were subjected to Bartlett's test, followed by Dunnett's multiple comparison test when the variance was uniform or Steel's multiple comparison test when the variance was not uniform.

## KFTSKVPGLYYFVYH (Immunoglobulin binding peptide) [R17]
  arthritis-suppressing effect (clinical score): arthritis-suppressing effects comparable to those of the groups receiving administration of R1 (intravenously) or R2 (intraperitoneally)
